Laboratory results published in US20070154906A1, “Methods to identify therapeutic candidates” (Spirogen Ltd., priority 2005, published 2007).

Experiments:
[1] = test system: MCF-7 human mammary cells; assay: Cellular uptake and nuclear incorporation, confocal microscopy; assay type: cell-based; conditions: for nuclear fluorescence: highest drug concentrations, exposure time 24 hour; for nuclear uptake: 200 μM over 24 hour; for time to cellular uptake / detection: MCF-7 cells
Procedure: Cellular uptake and nuclear incorporation of drug into MCF-7 human mammary cells was visualized using confocal microscopy. Conjugates GWL 77, GWL78, GWL 79, GWL 80 and GWL 81 were prepared in DMSO at 20 mM and diluted in RPMI to the appropriate concentration. Freshly harvested MCF7 cells at 5×10^4 cells/ml were placed in 200 μl of complete RPMI1640 (containing 10% FCS) into the wells of 8-well chambered cover-glasses. Cells were left overnight to adhere at 37° C. […] At 1, 5 and 24 hours after addition of conjugates, the cells were examined using a Nikon TE2000 with UV filter set and viewed under oil immersion with the x63 objective lens.

[2] = test system: K562 human chronic myeloid leukemia cells; assay: In vitro cytotoxicity assay (MTT); assay type: cell-based; conditions: K562, one hour exposure, MTT after four days
Procedure: In one aspect of this test, K562 human chronic myeloid leukemia cells are maintained in RPMI1640 medium supplemented with 10% fetal calf serum and 2 mM glutamine at 37° C. in a humidified atmosphere containing 5% CO2 and are incubated with a specified dose of drug for one hour at 37° C. in the dark. The incubation is terminated by centrifugation (5 min, 300 g) and the cells are washed once with drug-free medium. Following the appropriate drug treatment, the cells are transferred to 96-well microtiter plates (10^4 cells per well, 8 wells per sample). Plates are then kept in the dark at 37° C. in a humidified atmosphere containing 5% CO2. The assay is based on the ability of viable cells to reduce a yellow soluble tetrazolium salt, 3-(4,5-dimethylthiazol-2-yl)-2,5-diphenyl-2H-tetrazolium bromide (MTT, Aldrich-Sigma), to an insoluble purple formazan precipitate. Following incubation of the plates for four days (to allow control cells to increase in number by approximately 10 fold), 20 μL of MTT solution (5 mg/ml in phosphate-buffered saline) is added to each well and the plates further incubated for five hours. […] The optical density is then read at a wavelength of 550 nm on a […]™ (Titertek Labsystems, Finland) ELISA plate reader, and a dose-response curve is constructed. […]

[3] = test system: MS2 DNA fragment (MS2F and MS2R); assay: DNase I footprinting on MS2 DNA fragment; assay type: binding; conditions: for footprint shape at position H (footnote 1) / footprint shape at position J (footnote 2): MS2 DNA fragment; for footprint shape at position H (footnote 1): site H; for footprint shape at position J (footnote 2): site J
Procedure: The sequence selectivity of the six PBD-pyrrole conjugates (GWL 77, GWL 78, GWL 79, GWL 80, GWL 81 and GWL 82) was evaluated by standard DNA footprinting on a fragment of MS2 as follows, in accordance with the technique described in Martin, Biochemistry (2005) 44:4135-4147.
The vast majority of footprint sites are common features in the binding profiles of all six conjugates, with only a small number of sites being footprinted by a subset of the family. Even more unexpectedly, no site is footprinted by only one molecule (in fact, the fewest number of conjugates that bind at any single site is four). The differential cleavage plot in FIG. 5 provides footprinting profiles at a supramaximal concentration color-coded for each conjugate which illustrates a striking degree of overlap. Although there is no conspicuous change in footprinting patterns as the number of pyrroles units in each conjugate increases, there are changes in two other features, namely, the apparent binding affinity and the width of the footprinted site. […] To simplify comparison between molecules, only the most significant footprint site (5′-^62[…]^70−3′/3′-[…]-5′) (SEQ ID NO:24) was selected for comparison. When the binding affinity of each molecule is compared to the relative number of pyrrole units it contains, a parabolic relationship is observed. By this method, GWL 80 (four pyrroles) appears to be the strongest binder with a DNase IC50 of around 30 nM. Conjugate GWL 79 (three pyrroles) and GWL 81 (five pyrroles) follow closely with affinities in the region of 30-100 nM. […] Finally, GWL 77 (one pyrrole) is a particularly weak footprinting molecule with an DNase IC50 of about, or in excess of, 10 μM.

[4] = differential cleavage analysis, compared with GWL 79

Row | Compound | nuclear fluorescence [1] | IC50 [2] | footprint shape at position H (footnote 1) [3] | footprint shape at position J (footnote 2) [3] | nuclear uptake [1] | time to cellular uptake / detection [1] | footprint at position G ([3]; differential cleavage analysis) | IC50 ([3]; read-out: DNase IC50 (concentration of conjugate providing 50% inhibition of DNase I-mediated cleavage), site 5'-62CAATACACA70-3', estimated by eye from footprint images) | apparent binding affinity relative to GWL 79 ([3]; C11 versus GWL 79) | binding at positions K and L [3, 4] | footprints at positions D, M and G [3, 4]
1 | COC(=O)c1cc(NC(=O)c2cc(NC(=O)c3cc(NC(=O)c4cc(NC(=O)c5cc(NC(=O)c6cc(NC(=O)CCCOc7cc8c(cc7OC)C(=O)N7CCC[C@H]7C=N8)cn6C)cn5C)cn4C)cn3C)cn2C)cn1C [GWL 82, (11aS) methyl 4-{[4-({4-[(4-{[4-({4-[4-(7-methoxy-5-oxo-2,3,5,11a-tetrahydro-5H-pyrrolo[2,1-c][1,4]benzodiazepine-8-yloxy)-butyrylamino]-1-methyl-1H-pyrrole-2-carbonyl]-amino)-1-methyl-1H-pyrrole-2-carbonyl]-amino}-1-methyl-1H-pyrrole-2-carbonyl)-amino]-1-methyl-1H-pyrrole-2-carbonyl}-amino)-1-methyl-1H-pyrrole-2-carbonyl]-amino}-1-methyl-1H-pyrrole-2-carboxylate] | more diffuse throughout the cell | 32 nM | ^127, 29, 31 show evidence of two closely juxtaposed footprints at this position | ^227, 29, 31 show evidence of two closely juxtaposed footprints at this position |  |  |  |  |  |  | 
2 | COC(=O)c1cc(NC(=O)CCCOc2cc3c(cc2OC)C(=O)N2CCC[C@H]2C=N3)cn1C [GWL 77, (11aS) methyl 4-[4-(7-methoxy-5-oxo-2,3,5,11a-tetrahydro-5H-pyrrolo[2,1-c][1,4]benzodiazepine-8-yloxy)-butyrylamino]-1-methyl-1H-pyrrole-2-carboxylate] | strong nuclear fluorescence | 51 nM |  |  | clear nuclear uptake | < 1 h | footprinted | ≥ 10000 nM |  |  | 
3 | COC(=O)c1cc(NC(=O)c2cc(NC(=O)CCCOc3cc4c(cc3OC)C(=O)N3CCC[C@H]3C=N4)cn2C)cn1C [GWL 78, (11aS) methyl 4-({4-[4-(7-methoxy-5-oxo-2,3,5,11a-tetrahydro-5H-pyrrolo[2,1-c][1,4]benzodiazepine-8-yloxy)-butyrylamino]-1-methyl-1H-pyrrole-2-carbonyl}-amino)-1-methyl-1H-pyrrole-2-carboxylate] | strong nuclear fluorescence |  |  |  | clear nuclear uptake | 3 h | footprinted |  |  |  | 
4 | COC(=O)c1cc(NC(=O)c2cc(NC(=O)c3cc(NC(=O)CCCOc4cc5c(cc4OC)C(=O)N4CCC[C@H]4C=N5)cn3C)cn2C)cn1C [GWL 79, (11aS) methyl 4-{[4-({4-[4-(7-methoxy-5-oxo-2,3,5,11a-tetrahydro-5H-pyrrolo[2,1-c][1,4]benzodiazepine-8-yloxy)-butyrylamino]-1-methyl-1H-pyrrole-2-carbonyl]-amino)-1-methyl-1H-pyrrole-2-carbonyl]-amino}-1-methyl-1H-pyrrole-2-carboxylate] | strong nuclear fluorescence |  |  |  | clear nuclear uptake | 3 h |  |  |  |  | 
5 | COC(=O)c1cc(NC(=O)c2cc(NC(=O)c3cc(NC(=O)c4cc(NC(=O)CCCOc5cc6c(cc5OC)C(=O)N5CCC[C@H]5C=N6)cn4C)cn3C)cn2C)cn1C [GWL 80, (11aS) methyl 4-[(4-{[4-({4-[4-(7-methoxy-5-oxo-2,3,5,11a-tetrahydro-5H-pyrrolo[2,1-c][1,4]benzodiazepine-8-yloxy)-butyrylamino]-1-methyl-1H-pyrrole-2-carbonyl]-amino)-1-methyl-1H-pyrrole-2-carbonyl]-amino}-1-methyl-1H-pyrrole-2-carbonyl)-amino]-1-methyl-1H-pyrrole-2-carboxylate] | more diffuse throughout the cell |  | ^127, 29, 31 show evidence of two closely juxtaposed footprints at this position | ^227, 29, 31 show evidence of two closely juxtaposed footprints at this position |  |  | footprinted |  |  |  | 
6 | COC(=O)c1cc(NC(=O)c2cc(NC(=O)c3cc(NC(=O)c4cc(NC(=O)c5cc(NC(=O)CCCOc6cc7c(cc6OC)C(=O)N6CCC[C@H]6C=N7)cn5C)cn4C)cn3C)cn2C)cn1C [GWL 81, (11aS) methyl 4-({4-[(4-{[4-({4-[4-(7-methoxy-5-oxo-2,3,5,11a-tetrahydro-5H-pyrrolo[2,1-c][1,4]benzodiazepine-8-yloxy)-butyrylamino]-1-methyl-1H-pyrrole-2-carbonyl]-amino)-1-methyl-1H-pyrrole-2-carbonyl]-amino}-1-methyl-1H-pyrrole-2-carbonyl)-amino]-1-methyl-1H-pyrrole-2-carbonyl}-amino)-1-methyl-1H-pyrrole-2-carboxylate] | more diffuse throughout the cell |  | ^127, 29, 31 show evidence of two closely juxtaposed footprints at this position | ^227, 29, 31 show evidence of two closely juxtaposed footprints at this position |  |  | footprinted |  |  |  | 
7 | COC(=O)c1cc(NC(=O)c2cc(NC(=O)c3cc(NC(=O)CCOc4cc5c(cc4OC)C(=O)N4CCC[C@H]4C=N5)cn3C)cn2C)cn1C [C11, reference compound] |  |  |  |  |  |  |  |  | 30-100 fold | much weaker binding | lack of footprints
